Measured values: US9145411B2, “Substituted amino-pyrimidine derivatives” (Asana Biosciences, LLC, priority 2012, dated 2015)

Legend:
PI3Kα (wild-type) = target: T1, PI3Kα (wild-type) (Homo sapiens, UniProt P42336); assay: PI3 Kinase TR-FRET assay, PI3Kα (wild-type); type: biochemical; details: wild-type P110/P85α, 10 μM ATP
T1 construct: made in house; host or cells: SF9 insect cells
Summary of the method: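 Sf9-expressed, Ni-purified p110/p85α (5 ng) with PIP2 was preincubated with compound for 60 min at room temperature in buffer with 40 mM MgCl2 and 5 mM DTT. The reaction ran 30 min at room temperature with 10 μM PIP2 and 10 μM ATP. The TR-FRET 665/615 nm ratio was used to derive IC50 from dose-response curves.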

mTOR kinase = target: T2, mTOR kinase (Homo sapiens, UniProt P42345); assay: mTOR kinase TR-FRET assay; type: biochemical; details: 20 μM ATP
T2 construct: purchased Millipore, USA
Summary of the method: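 Test compounds were pre-incubated 60 min with mTOR (5 ng), then ULight-p70 S6K (Thr389) peptide (50 nM) and ATP (20 μM) were added in HEPES 50 mM pH 7.5, EGTA, MnCl2 3 mM. After 60 min at room temperature, EDTA stop and Eu-anti-phospho antibody TR-FRET (665/615 nm) gave IC50 from sigmoidal variable-slope fits.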

pAkt(T308) = assay: In-cell Western assay, pAkt(T308), PC3 cells; type: cell-based; details: Homo sapiens, PC-3, 2 hours incubation
Method: Cells from human prostate cancer cell line PC3 (American Type Culture Collection (ATCC), Manassas, Va. 20108 USA) were seeded at an optimal density of 22,000 cell/well in 96-well plates containing Ham's F12K medium (90 μL) and incubated overnight. The compound dilutions were carried out in 100% DMSO followed by a dilution in the medium. Test compounds were added in serial dilutions to the wells and incubated for 2 hours. The cells were washed and fixed with 4% paraformaldehyde. After incubation at room temperature for 1 hour in the dark, blocking was done for 2 hours at room temperature. Primary antibodies for pAkt(S473) ([…] phosphorylated at serine 473), pAkt(T308) (Akt phosphorylated at threonine 308) and for pS6RP (S235/236) (phosphorylated at serine 235/236) (commercially available from Cell Signaling Technology®, whose protocol was followed for the in-cell western assay, were diluted to the required concentration and added to the corresponding wells followed by overnight incubation at 4° C. Eu-labeled rabbit (PE) (Perkin-Elmer USA catalog #AD0106) secondary antibody was added and incubated for 2 hours at room temperature. Delfia® enhancement solution (cat #1244-105, Perkin Elmer USA) was subsequently added to the plate before taking the reading at 615 nm with excitation wavelength of 340 nm, after which 0.5 μg/mL of Hoechst® 33258 dye (Catalog #86140-5, Sigma) was added to the plate and fluorescence emission was read at 460 nm with 355 nm excitation, to evaluate the correction factor. IC50 values were calculated using a sigmoidal dose-response curve fit in GraphPad Prism® v5 software.

PC3 cells = assay: XTT assay for cell viability, PC3 cells; type: cell-based; details: Homo sapiens, PC-3; PC3 cell proliferation, 96 hours
Method: Using a commercial kit from Sigma Aldrich (Catalog #X34251) and following its protocol, PC3 cells in the log phase of growth were employed and seeded at an optimal density of 1000 cell/well on to 96 well plates and incubated for 24 hours followed by the addition of compounds of formula (I) in serial dilutions. Compound dilutions were made in DMSO. The cells were incubated with the compounds of formula (I) for 96 hours and XTT tetrazolium dye (Sigma, USA) was subsequently added and incubated at 37° C. After the color formation, absorbance was measured at 465 nm in a Spectramax® Gemini spectrophotometer. EC50 values were calculated using a sigmoidal dose response curve fit in GraphPad Prism® v5 software. The tested compounds of formula (I) which caused inhibition of PC3 cell proliferation as determined by this assay protocol are shown in Table 2.

T1 sequence (P42336 whole entry, species assumed): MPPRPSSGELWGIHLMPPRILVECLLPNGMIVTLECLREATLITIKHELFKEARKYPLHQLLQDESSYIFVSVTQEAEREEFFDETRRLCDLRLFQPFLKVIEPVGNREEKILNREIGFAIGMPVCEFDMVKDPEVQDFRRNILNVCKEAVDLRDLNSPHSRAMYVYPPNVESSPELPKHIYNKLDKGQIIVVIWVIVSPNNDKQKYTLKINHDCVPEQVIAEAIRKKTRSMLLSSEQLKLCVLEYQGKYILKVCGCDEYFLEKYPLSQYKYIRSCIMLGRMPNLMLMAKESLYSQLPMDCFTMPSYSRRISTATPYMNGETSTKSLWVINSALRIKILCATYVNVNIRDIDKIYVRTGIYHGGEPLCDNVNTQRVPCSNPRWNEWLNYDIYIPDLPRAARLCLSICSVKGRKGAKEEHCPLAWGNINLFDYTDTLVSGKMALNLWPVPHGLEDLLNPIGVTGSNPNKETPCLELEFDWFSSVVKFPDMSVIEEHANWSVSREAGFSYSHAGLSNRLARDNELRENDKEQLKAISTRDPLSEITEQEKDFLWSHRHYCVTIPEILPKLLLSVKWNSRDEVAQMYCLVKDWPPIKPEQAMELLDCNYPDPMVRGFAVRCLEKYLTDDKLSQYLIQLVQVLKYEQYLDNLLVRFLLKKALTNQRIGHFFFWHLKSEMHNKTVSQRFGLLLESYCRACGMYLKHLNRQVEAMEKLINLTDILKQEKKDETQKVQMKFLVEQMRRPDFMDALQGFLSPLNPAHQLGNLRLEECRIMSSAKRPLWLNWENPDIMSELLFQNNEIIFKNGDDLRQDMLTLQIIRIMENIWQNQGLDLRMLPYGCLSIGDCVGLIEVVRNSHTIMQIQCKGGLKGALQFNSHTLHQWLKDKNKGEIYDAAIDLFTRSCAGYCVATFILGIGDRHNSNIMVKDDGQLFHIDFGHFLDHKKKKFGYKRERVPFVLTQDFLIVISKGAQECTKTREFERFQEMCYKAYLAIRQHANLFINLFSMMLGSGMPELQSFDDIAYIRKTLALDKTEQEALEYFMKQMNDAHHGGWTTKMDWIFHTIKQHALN
T1 sequence (P27986 whole entry partner, species assumed): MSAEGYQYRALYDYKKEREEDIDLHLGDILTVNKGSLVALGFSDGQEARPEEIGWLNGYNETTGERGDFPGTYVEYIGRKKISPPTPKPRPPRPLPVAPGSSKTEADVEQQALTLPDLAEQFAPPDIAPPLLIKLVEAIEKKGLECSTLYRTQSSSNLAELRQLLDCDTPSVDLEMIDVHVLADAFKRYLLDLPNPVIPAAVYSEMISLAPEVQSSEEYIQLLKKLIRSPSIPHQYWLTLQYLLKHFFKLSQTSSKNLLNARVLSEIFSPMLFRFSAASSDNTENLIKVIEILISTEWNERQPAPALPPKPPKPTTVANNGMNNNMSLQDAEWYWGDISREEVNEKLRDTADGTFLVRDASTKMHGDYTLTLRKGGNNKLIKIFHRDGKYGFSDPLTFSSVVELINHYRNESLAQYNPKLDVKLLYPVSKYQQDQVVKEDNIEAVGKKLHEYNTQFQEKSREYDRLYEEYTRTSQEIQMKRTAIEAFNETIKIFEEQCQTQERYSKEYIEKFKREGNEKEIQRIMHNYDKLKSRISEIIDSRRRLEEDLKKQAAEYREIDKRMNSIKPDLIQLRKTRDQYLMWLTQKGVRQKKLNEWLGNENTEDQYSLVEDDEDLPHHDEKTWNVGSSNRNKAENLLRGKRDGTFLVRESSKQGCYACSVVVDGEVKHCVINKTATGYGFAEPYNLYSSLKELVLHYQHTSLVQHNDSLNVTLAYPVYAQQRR
T2 sequence (P42345 1362-2549 limits assumed): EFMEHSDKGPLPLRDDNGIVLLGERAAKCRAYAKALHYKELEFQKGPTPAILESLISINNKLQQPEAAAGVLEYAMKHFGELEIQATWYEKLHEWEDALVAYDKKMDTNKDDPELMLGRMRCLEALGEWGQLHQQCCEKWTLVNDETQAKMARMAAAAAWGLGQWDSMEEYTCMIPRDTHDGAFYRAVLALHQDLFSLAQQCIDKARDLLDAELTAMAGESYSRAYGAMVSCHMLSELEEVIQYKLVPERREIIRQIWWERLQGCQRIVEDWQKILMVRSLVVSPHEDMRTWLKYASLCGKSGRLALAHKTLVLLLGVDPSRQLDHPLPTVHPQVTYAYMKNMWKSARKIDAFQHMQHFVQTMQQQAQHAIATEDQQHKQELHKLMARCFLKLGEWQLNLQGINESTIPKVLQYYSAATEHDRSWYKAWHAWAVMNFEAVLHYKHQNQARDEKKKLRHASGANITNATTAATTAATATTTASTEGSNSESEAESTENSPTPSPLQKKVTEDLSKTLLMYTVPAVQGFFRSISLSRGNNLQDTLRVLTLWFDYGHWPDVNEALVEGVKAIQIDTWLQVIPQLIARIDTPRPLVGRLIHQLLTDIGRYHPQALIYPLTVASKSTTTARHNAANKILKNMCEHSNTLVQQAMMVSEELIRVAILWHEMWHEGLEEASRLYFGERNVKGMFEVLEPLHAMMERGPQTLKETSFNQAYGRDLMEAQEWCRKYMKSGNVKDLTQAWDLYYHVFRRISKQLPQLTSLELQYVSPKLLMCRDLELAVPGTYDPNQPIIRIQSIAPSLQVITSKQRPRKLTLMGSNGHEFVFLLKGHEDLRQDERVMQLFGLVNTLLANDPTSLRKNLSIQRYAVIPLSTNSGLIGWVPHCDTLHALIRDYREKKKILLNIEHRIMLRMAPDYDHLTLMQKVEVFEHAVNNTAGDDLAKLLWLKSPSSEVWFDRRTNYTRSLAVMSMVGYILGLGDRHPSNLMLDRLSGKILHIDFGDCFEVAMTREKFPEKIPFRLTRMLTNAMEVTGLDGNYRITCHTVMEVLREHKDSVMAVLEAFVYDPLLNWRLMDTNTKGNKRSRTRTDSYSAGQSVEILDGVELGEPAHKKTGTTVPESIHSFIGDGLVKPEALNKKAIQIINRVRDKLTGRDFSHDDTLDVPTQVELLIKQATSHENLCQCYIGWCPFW

| Structure (SMILES) | IC50 (PI3Kα (wild-type)) [nM] | IC50 (mTOR kinase) [nM] | IC50 (pAkt(T308)) [nM] | IC50 (PC3 cells) [nM] |
| --- | --- | --- | --- | --- |
| CNC(=O)Nc1ccc(-c2cnc3c(N4CCOCC4)nc(-c4cnc(N)nc4)nc3c2)cc1 [Example 29, 1-(4-(2-(2-amino-pyrimidin-5-yl)-4-morpholinopyrido[3,2-d]pyrimidin-7-yl)phenyl)-3-methylurea] | < 50 | < 50 | 100 to 500 | 100 to 500 |
| CNC(=O)c1cccc(-c2cnc3c(N4CCOCC4)nc(-c4cnc(N)nc4)nc3c2)c1 [Example 103, 3-(2-(2-aminopyrimidin-5-yl)-4-morpholinopyrido[3,2-d]-pyrimidin-7-yl)-N-methylbenzamide] | < 50 | 50 to 200 | < 100 | < 100 |
| Nc1ncc(-c2nc(N3CCOCC3)c3ncc(-c4cccc(NC(=O)CO)c4)cc3n2)cn1 [Example 50, N-(3-(2-(2-amino-pyrimidin-5-yl)-4-morpholinopyrido[3,2-d]pyrimidin-7-yl)phenyl)-2-hydroxyacetamide] | < 50 | < 50 | 501 to 5000 | 100 to 500 |
| Nc1ncc(-c2nc(N3CCOCC3)c3ncc(-c4cccc(NC(=O)C5CCC(O)CC5)c4)cc3n2)cn1 (centres unmarked) [Example 70, N-(3-(2-(2-amino-pyrimidin-5-yl)-4-morpholinopyrido[3,2-d]pyrimidin-7-yl)phenyl)-4-hydroxycyclohexane-carboxamide] | < 50 | < 50 | 100 to 500 | 100 to 500 |
| Nc1ncc(-c2nc(N3CCOCC3)c3ncc(-c4cccc(NC(=O)CN5CCOCC5)c4)cc3n2)cn1 [Example 84, N-(3-(2-(2-aminopyrimidin-5-yl)-4-morpholinopyrido[3,2-d]pyrimidin-7-yl)phenyl)-2-morpholinoacetamide] | < 50 | < 50 | 100 to 500 | 100 to 500 |
| Nc1ncc(-c2nc(N3CCOCC3)c3ncc(-c4ccc(NS(=O)(=O)C5CC5)cc4)cc3n2)cn1 [Example 82, N-(4-(2-(2-amino-pyrimidin-5-yl)-4-morpholinopyrido[3,2-d]-pyrimidin-7-yl)phenyl)-cyclopropanesulfonamide] | < 50 | < 50 | < 100 | 100 to 500 |
| Nc1ncc(-c2nc(N3CCOCC3)c3ncc(-c4cccc(NC(=O)C5CCC5)c4)cc3n2)cn1 [Example 76, N-(3-(2-(2-amino-pyrimidin-5-yl)-4-morpholinopyrido[3,2-d]pyrimidin-7-yl)-phenyl)cyclobutane-carboxamide] | < 50 | < 50 | < 100 | 100 to 500 |
| CNC(=O)c1ccc(-c2cnc3c(N4CCOCC4)nc(-c4cnc(N)nc4)nc3c2)cc1 [Example 33, 4-(2-(2-aminopyrimidin-5-yl)-4-morpholinopyrido[3,2-d]pyrimidin-7-yl)-N-methylbenzamide] | < 50 | < 50 | 100 to 500 | 100 to 500 |
| Nc1ncc(-c2nc(N3CCOCC3)c3ncc(-c4cccc(NC(=O)c5ccco5)c4)cc3n2)cn1 [Example 67, N-(3-(2-(2-amino-pyrimidin-5-yl)-4-morpholinopyrido[3,2-d]pyrimidin-7-yl)-phenyl)furan-2-carboxamide] | < 50 | < 50 | 100 to 500 | 100 to 500 |
| Nc1ncc(-c2nc(N3CCOCC3)c3ncc(-c4cccc(NS(=O)(=O)c5ccc(F)cc5)c4)cc3n2)cn1 [Example 8, N-(3-(2-(2-aminopyrimidin-5-yl)-4-morpholinopyrido[3,2-d]pyrimidin-7-yl)phenyl)-4-fluorobenzenesulfonamide] | < 50 | < 50 | 100 to 500 | 501 to 5000 |
| CC(C)(O)c1cccc(-c2cnc3c(N4CCOCC4)nc(-c4cnc(N)nc4)nc3c2)c1 [Example 109, 2-(3-(2-(2-amino-pyrimidin-5-yl)-4-morpholinopyrido[3,2-d]pyrimidin-7-yl)-phenyl)propan-2-ol] | < 50 | 50 to 200 | 501 to 5000 | 100 to 500 |
| Nc1ncc(-c2nc(N3CCOCC3)c3ncc(-c4cccc(NC(=O)c5cnccc5C(F)(F)F)c4)cc3n2)cn1 [Example 68, N-(3-(2-(2-amino-pyrimidin-5-yl)-4-morpholinopyrido[3,2-d]pyrimidin-7-yl)phenyl)-4-(trifluoromethyl)-nicotinamide] | < 50 | < 50 | < 100 | 100 to 500 |
| CN1CCN(CC(=O)Nc2cccc(-c3cnc4c(N5CCOCC5)nc(-c5cnc(N)nc5)nc4c3)c2F)CC1 [Example 86, N-(3-(2-(2-amino-pyrimidin-5-yl)-4-morpholinopyrido[3,2-d]-pyrimidin-7-yl)-2-fluoro-phenyl)-2-(4-methyl-piperazin-1-yl)acetamide] | < 50 | 50 to 200 | 501 to 5000 |  |
| CN1CCN(C(=O)c2ccc(-c3cnc4c(N5CCOCC5)nc(-c5cnc(N)nc5)nc4c3)o2)CC1 [Example 5, (5-(2-(2-Aminopyrimidin-5-yl)-4-morpholinopyrido[3,2-d]pyrimidin-7-yl)furan-2-yl)(4-methylpiperazin-1-yl)methanone] | < 50 | 50 to 200 | 100 to 500 |  |
| CC(F)C(=O)Nc1cccc(-c2cnc3c(N4CCOCC4)nc(-c4cnc(N)nc4)nc3c2)c1 (centres unmarked) [Example 51, N-(3-(2-(2-amino-pyrimidin-5-yl)-4-morpholinopyrido[3,2-d]pyrimidin-7-yl)phenyl)-2-fluoropropanamide] | < 50 | < 50 |  | 100 to 500 |
| CC(C)(O)C(=O)N1CCN(c2cccc(-c3cnc4c(N5CCOCC5)nc(-c5cnc(N)nc5)nc4c3)c2)CC1 [Example 108, 1-(4-(3-(2-(2-amino-pyrimidin-5-yl)-4-morpholinopyrido[3,2-d]pyrimidin-7-yl)-phenyl)piperazin-1-yl)-2-hydroxy-2-methylpropan-1-one] | < 50 | < 50 |  | 100 to 500 |
| Nc1ncc(-c2nc(N3CCOCC3)c3ncc(-c4cccc(NC(=O)C56CC7CC(CC(C7)C5)C6)c4)cc3n2)cn1 [Example 65, N-(3-(2-(2-amino-pyrimidin-5-yl)-4-morpholinopyrido[3,2-d]pyrimidin-7-yl)-phenyl)adamantane-1-carboxamide] | < 50 | 201 to 10000 |  | 501 to 5000 |
| Nc1ncc(-c2nc(N3CCOCC3)c3ncc(-c4cccc(NC(=O)c5cnccn5)c4)cc3n2)cn1 [Example 64, N-(3-(2-(2-amino-pyrimidin-5-yl)-4-morpholinopyrido[3,2-d]pyrimidin-7-yl)-phenyl)pyrazine-2-carboxamide] | < 50 |  | 100 to 500 |  |
| Nc1ncc(-c2nc(N3CCOCC3)c3ncc(-c4ccc(C(=O)Nc5ccncc5)cc4)cc3n2)cn1 [Example 38, 4-(2-(2-aminopyrimidin-5-yl)-4-morpholino-pyrido[3,2-d]pyrimidin-7-yl)-N-(pyridin-4-yl)-benzamide] | < 50 | 50 to 200 |  | > 1000 |
| CC(=O)Nc1ccc(F)c(-c2cnc3c(N4CCOCC4)nc(-c4cnc(N)nc4)nc3c2)c1F [Example 123, N-(3-(2-(2-amino-pyrimidin-5-yl)-4-morpholinopyrido[3,2-d]pyrimidin-7-yl)-2,4-difluorophenyl)acetamide] | < 50 | 50 to 200 |  | 100 to 500 |
| N#CC1(C(=O)Nc2ccc(F)c(-c3cnc4c(N5CCOCC5)nc(-c5cnc(N)nc5)nc4c3)c2)CC1 [Example 124, N-(3-(2-(2-amino-pyrimidin-5-yl)-4-morpholinopyrido[3,2-d]pyrimidin-7-yl)-4-fluorophenyl)-1-cyanocyclopropane-carboxamide] | < 50 | 50 to 200 |  | > 1000 |
